In patent US20250197351A1, “C4-CARBOXYLIC ACID-S[…] DERIVATIVES AND METHODS OF USING” (priority 2022, published 2025):
Several values for one entry are separate records, joined by “and”; a condition that tells them apart may be missing. Equal entries are not always repeated.

Key:
[1] = Metabolic stability / psilocin release in liver fractions; format: in vitro ADME, human; conditions: HLM and HLS9; 2.5 μM; up to 2 hours
Text: (§1) A fundamental evaluation in drug development is the assessment of absorption, distribution, metabolism, excretion, and pharmacokinetics (ADME/PK) (Eddershaw et al., 2000, Drug Discovery Today 5(9): 409-414). […] Drug stability upon exposure to human liver microsomes and liver S9 cellular fractions is a common in vitro assay to approximate in vivo, liver-based drug metabolism (Richardson et al., 2016 Drug Metabolism Letters 10:83-90). First-pass metabolism is also often approximated in vitro using intestinal microsome and cellular S9 fractions (Hatley et al., 2017, Biopharmaceuticals & Drug Disposition, 38(2):155-160). […] Supernatants were analyzed for the presence of candidate prodrugs (parent molecule) and psilocin (the predicted metabolite) using Orbitrap LC-MS (Thermo Scientific) using previously described methods (Menéndez-Perdomo et al., 2021, J Mass Spectrom, 56: e4683). […] Assay concentrations (M) of both parent ‘prodrug’ molecule and psilocin metabolite, as quantified through LC-MS using routine standard curve procedures, were plotted as functions of assay time (minutes). The metabolism rate (T1/2) was determined from the metabolism curve plot using the one phase decay feature of GraphPad PRISM software (Version 9.2.0). The quantity of parent prodrug at time zero was set as 100%. […]

[2] = Stability in enzyme-free control buffer; format: in vitro ADME; conditions: 50 mM potassium phosphate buffer pH 7.4
Text: A fundamental evaluation in drug development is the assessment of absorption, distribution, metabolism, excretion, and pharmacokinetics (ADME/PK) (Eddershaw et al., 2000, Drug Discovery Today 5(9): 409-414). […] Drug stability upon exposure to human liver microsomes and liver S9 cellular fractions is a common in vitro assay to approximate in vivo, liver-based drug metabolism (Richardson et al., 2016 Drug Metabolism Letters 10:83-90). First-pass metabolism is also often approximated in vitro using intestinal microsome and cellular S9 fractions (Hatley et al., 2017, Biopharmaceuticals & Drug Disposition, 38(2):155-160). […] Supernatants were analyzed for the presence of candidate prodrugs (parent molecule) and psilocin (the predicted metabolite) using Orbitrap LC-MS (Thermo Scientific) using previously described methods (Menéndez-Perdomo et al., 2021, J Mass Spectrom, 56: e4683). […] Assay concentrations (M) of both parent ‘prodrug’ molecule and psilocin metabolite, as quantified through LC-MS using routine standard curve procedures, were plotted as functions of assay time (minutes). The metabolism rate (T1/2) was determined from the metabolism curve plot using the one phase decay feature of GraphPad PRISM software (Version 9.2.0). The quantity of parent prodrug at time zero was set as 100%.

[3] = Metabolic stability / psilocin release in serum; format: in vitro ADME; conditions: 10% human AB serum
Text: as §1

[4] = Mouse pharmacokinetic (PK) study, parent compound and psilocin metabolite in plasma; format: in vivo; conditions: mouse; for Plasma concentration of parent compound / Plasma concentration of psilocin: individual animals; for Plasma concentration of psilocin: 24 h, BLQ = below 0.2 ng/mL
Text: Briefly, the procedure was as follows. […] 19, 2022.

CN(C)CCc1c[nH]c2cccc(OP(=O)(O)O)c12 [psilocybin, reference compound]
Metabolic stability and conversion to psilocin in liver fractions [1]: stable in liver fractions with no conversion to psilocin | Stability in assay buffer [2]: stability of psilocybin was confirmed in assay buffer | Metabolic stability and conversion to psilocin in serum [3]: stable in serum with no conversion to psilocin | Detection of parent compound in plasma after i.v. administration ([4]; 1 mg/kg i.v.): only detectable in i.v. administered animals | Plasma concentration of parent compound ([4]; 1 mg/kg i.v., 0.25 h, BLQ = below 0.5 ng/mL (C(V)), 1 mg/kg): 3.32 ng/mL and 8.95 ng/mL and 27.2 ng/mL | Plasma concentration of parent compound ([4]; 1 mg/kg i.v., 0.5 h, BLQ = below 0.5 ng/mL (C(V)), 1 mg/kg): No Peak and 2.35 ng/mL and 6.21 ng/mL | Plasma concentration of parent compound ([4]; 1 mg/kg i.v., 1 h, 1 mg/kg): No Peak | Plasma concentration of parent compound ([4]; 1 mg/kg i.v., 2 h): No Peak | Plasma concentration of parent compound ([4]; 1 mg/kg i.v., 4 h): No Peak | Plasma concentration of parent compound ([4]; 1 mg/kg i.v., 6 h): No Peak | Plasma concentration of parent compound ([4]; 1 mg/kg i.v., 8 h, 1 mg/kg): No Peak | Detection of parent compound in plasma after oral administration ([4]; orally administered, any dose (1, 3, 10 mg/kg)): not detectable | Plasma concentration of psilocin ([4]; prodrug 1 mg/kg p.o. (psilocybin: 1.56 mg/kg)): BLQ | Plasma concentration of psilocin ([4]; prodrug 3 mg/kg p.o.): BLQ
